Source: patent publication US20230111310A1, “CARBOXYLIC ACID DERIVATIVE-SUBSTITUTED IMINO ARYL COMPOUND, PREPARATION METHOD THEREFOR, HERBICIDAL COMPOSITION AND USE THEREOF” (Qingdao Kingagroot Chemical Compound Co., Ltd., priority 2020, published 2023)

Tests used:
Experiment in all cases: Weeding effect in post-emergence stage
Type in all cases: in vivo
Conditions in all cases: level of fresh weight growth control rate
Echinochloa crusgalli = test system: Echinochloa crusgalli
In short: (§1)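 Pot-grown greenhouse plants sprayed at 2–3 leaf stage, 2 weeks after sowing, with compound in acetone/Tween 80 plus methyl oleate emulsifiable concentrate (1.5 liter/ha) at 500–7.5 g/ha. Growth control rated 3 weeks after treatment; mean of three replicates.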

Digitaria sanguinalis = test system: Digitaria sanguinalis
In short: as §1

Abutilon theophrasti = test system: Abutilon theophrasti
In short: as §1

Eleusine indica = test system: Eleusine indica
In short: as §1

Alopecurus japonicus = test system: Alopecurus japonicus
In short: as §1

Setaria viridis = test system: Setaria viridis
In short: as §1

Row | SMILES | Weeding effect in post-emergence stage, Echinochloa crusgalli (Echinochloa crusgalli; Dose 15 g/ha) | Weeding effect in post-emergence stage, Digitaria sanguinalis (Digitaria sanguinalis; Dose 15 g/ha) | Weeding effect in post-emergence stage, Abutilon theophrasti (Abutilon theophrasti; Dose 15 g/ha) | Weeding effect in post-emergence stage, Eleusine indica (Eleusine indica; Dose 15 g/ha) | Weeding effect in post-emergence stage, Alopecurus japonicus (Alopecurus japonicus; Dose 15 g/ha) | Weeding effect in post-emergence stage, Setaria viridis (Setaria viridis; Dose 15 g/ha) | further results
1 | CCOC(=O)/C(C)=N/OC(=O)C(C)O/N=C/c1cc(-n2c(=O)cc(C(F)(F)F)n(C)c2=O)c(F)cc1Cl (stereo not drawn) [Compound 254] | 5 (Level 5: growth control rate is above 85%) | 5 (Level 5: growth control rate is above 85%) | 5 (Level 5: growth control rate is above 85%) | 5 (Level 5: growth control rate is above 85%) | 5 (Level 5: growth control rate is above 85%) | 5 (Level 5: growth control rate is above 85%) | 
2 | CC(O/N=C/c1cc(-n2c(=O)cc(C(F)(F)F)n(C)c2=O)c(F)cc1Cl)C(=O)O/N=C/c1ccccc1 (stereo not drawn) [Compound 255] |  |  |  |  |  |  | Weeding effect in post-emergence stage, Echinochloa crusgalli (Echinochloa crusgalli; Dose 30 g/ha): 5 (Level 5: growth control rate is above 85%); Weeding effect in post-emergence stage, Digitaria sanguinalis (Digitaria sanguinalis; Dose 30 g/ha): 5 (Level 5: growth control rate is above 85%); Weeding effect in post-emergence stage, Abutilon theophrasti (Abutilon theophrasti; Dose 30 g/ha): 5 (Level 5: growth control rate is above 85%); Weeding effect in post-emergence stage, Eleusine indica (Eleusine indica; Dose 30 g/ha): 5 (Level 5: growth control rate is above 85%); Weeding effect in post-emergence stage, Alopecurus japonicus (Alopecurus japonicus; Dose 30 g/ha): 5 (Level 5: growth control rate is above 85%); Weeding effect in post-emergence stage, Setaria viridis (Setaria viridis; Dose 30 g/ha): 5 (Level 5: growth control rate is above 85%)
3 | CC(O/N=C/c1cc(-n2c(=O)cc(C(F)(F)F)n(C)c2=O)c(F)cc1Cl)C(=O)ON=C1CCCC1 (stereo not drawn) [Compound 258] | 5 (Level 5: growth control rate is above 85%) | 5 (Level 5: growth control rate is above 85%) | 5 (Level 5: growth control rate is above 85%) | 5 (Level 5: growth control rate is above 85%) | 4 (Level 4: growth control rate is greater than or equal to 60% and less than 85%) | 5 (Level 5: growth control rate is above 85%) | 
4 | CC(C)=NOCCOC(=O)C(C)O/N=C/c1cc(-n2c(=O)cc(C(F)(F)F)n(C)c2=O)c(F)cc1Cl (stereo not drawn) [Compound 259] |  |  |  |  |  |  | Weeding effect in post-emergence stage, Echinochloa crusgalli (Echinochloa crusgalli; Dose 30 g/ha): 5 (Level 5: growth control rate is above 85%); Weeding effect in post-emergence stage, Digitaria sanguinalis (Digitaria sanguinalis; Dose 30 g/ha): 5 (Level 5: growth control rate is above 85%); Weeding effect in post-emergence stage, Abutilon theophrasti (Abutilon theophrasti; Dose 30 g/ha): 5 (Level 5: growth control rate is above 85%); Weeding effect in post-emergence stage, Eleusine indica (Eleusine indica; Dose 30 g/ha): 5 (Level 5: growth control rate is above 85%); Weeding effect in post-emergence stage, Alopecurus japonicus (Alopecurus japonicus; Dose 30 g/ha): 5 (Level 5: growth control rate is above 85%); Weeding effect in post-emergence stage, Setaria viridis (Setaria viridis; Dose 30 g/ha): 5 (Level 5: growth control rate is above 85%)
5 | CC(O/N=C/c1cc(-n2c(=O)cc(C(F)(F)F)n(C)c2=O)c(F)cc1Cl)C(=O)Oc1ccccc1 (stereo not drawn) [Compound 262] | 5 (Level 5: growth control rate is above 85%) | 5 (Level 5: growth control rate is above 85%) | 5 (Level 5: growth control rate is above 85%) | 5 (Level 5: growth control rate is above 85%) | 5 (Level 5: growth control rate is above 85%) | 5 (Level 5: growth control rate is above 85%) | 
6 | CC(O/N=C/c1cc(-n2c(=O)cc(C(F)(F)F)n(C)c2=O)c(F)cc1Cl)C(=O)ON1C(=O)CCC1=O (stereo not drawn) [Compound 263] |  |  |  |  |  |  | Weeding effect in post-emergence stage, Echinochloa crusgalli (Echinochloa crusgalli; Dose 60 g/ha): 5 (Level 5: growth control rate is above 85%); Weeding effect in post-emergence stage, Digitaria sanguinalis (Digitaria sanguinalis; Dose 60 g/ha): 5 (Level 5: growth control rate is above 85%); Weeding effect in post-emergence stage, Abutilon theophrasti (Abutilon theophrasti; Dose 60 g/ha): 5 (Level 5: growth control rate is above 85%); Weeding effect in post-emergence stage, Eleusine indica (Eleusine indica; Dose 60 g/ha): 5 (Level 5: growth control rate is above 85%); Weeding effect in post-emergence stage, Alopecurus japonicus (Alopecurus japonicus; Dose 60 g/ha): 5 (Level 5: growth control rate is above 85%); Weeding effect in post-emergence stage, Setaria viridis (Setaria viridis; Dose 60 g/ha): 5 (Level 5: growth control rate is above 85%)
7 | CC(O/N=C/c1cc(-n2c(=O)cc(C(F)(F)F)n(C)c2=O)c(F)cc1Cl)C(=O)OCC1CCCO1 (stereo not drawn) [Compound 264] | 5 (Level 5: growth control rate is above 85%) | 5 (Level 5: growth control rate is above 85%) | 5 (Level 5: growth control rate is above 85%) | 5 (Level 5: growth control rate is above 85%) | 5 (Level 5: growth control rate is above 85%) | 5 (Level 5: growth control rate is above 85%) | 
